The nature of data set [1]: Long-term, accelerated stability of crystal forms B and D (XRPD). Type of data set: physicochemical. The note with it: Day 20; for change of XRPD peaks / crystal form stability: spread flat in the air. The protocol:
2. X-ray Powder Diffraction, XRPD
Instrument type: BRUKER D8 Discover A25 X-ray powder diffractometer
Ray: monochromatic Cu—Kα ray (λ=1.5406 Å)
Scanning mode: θ/2,θ Scanning range: 10-48°
Voltage: 40 kV, Electric current: 40 mA
The sample of crystal form B was spread flat in the air to test sample stability under conditions of 25° C.-65% relative humidity (RH), and the sampling time was Day 20. The sample of crystal form D was spread flat in the air to test sample stability under conditions of 40° C.-75% RH and 25° C.-65% RH, and the sampling time was Day 20.

The nature of data set [2]: Dynamic Vapour Sorption (DVS) hygroscopicity. Type of data set: physicochemical. Particulars: 25° C., water, humidity change 0-95-0-95-0% RH; FIGS. 8 and 9. As for the experimental part: 3. Dynamic Vapour Sorption, DVS
Instrument type: DVS advantage
The crude product N-((4,6-dimethyl-2-oxo-1,2-dihydropyridin-3 -yl)methyl)-5 -ethyl-6-(ethyl(tetrahydro-2 H-pyran-4-yl)amino)-2-(piperidin-1-ylmethyl)benzofuran-4-carboxamide (50 mg, 0.091 mmol) obtained in Comparative example 1 was added to a reaction flask, and methanol (100 μL) was added. The solution was stirred at 25° C. for five days, filtrated and dried under vacuum to obtain a white to pale yellow powder. The DSC spectrum is shown in FIG. 7, in which the onset melting temperature is about 205.45° C.

As to `CCc1c(N(CC)C2CCOCC2)cc2oc(CN3CCCCC3)cc2c1C(=O)NCc1c(C)cc(C)[nH]c1=O` [crystal form B, N-((4,6-dimethyl-2-oxo-1,2-dihydropyridin-3-yl)methyl)-5-ethyl-6-(ethyl(tetrahydro-2 H-pyran-4-yl)amino)-2-(piperidin-1-ylmethyl)benzofuran-4-carboxamide], the “change of XRPD peaks / crystal form stability” value in data set [1] (25° C.-65% RH) is listed as “has changed significantly”.
Take `CCc1c(N(CC)C2CCOCC2)cc2oc(CN3CCCCC3)cc2c1C(=O)NCc1c(C)cc(C)[nH]c1=O` [crystal form D, N-((4,6-dimethyl-2-oxo-1,2-dihydropyridin-3-yl)methyl)-5-ethyl-6-(ethyl(tetrahydro-2 H-pyran-4-yl)amino)-2-(piperidin-1-ylmethyl)benzofuran-4-carboxamide]: the “physical stability compared between crystal forms” value in data set [1] (25° C.-65%RH) is “better than that of crystal form B”. Besides, the “change of XRPD peaks / crystal form stability” value in data set [1] (40° C.-75% RH) was “has not changed substantially”. The “hygroscopicity (DVS diagrams)” value in data set [2] is given as “no obvious hygroscopicity”.

These data come from patent US11155537B2, “Crystal of benzofuran derivative free base and preparation method” (Jiangsu Hengrui Medicine Co., Ltd., priority 2017, dated 2021).
